Experiment [1] has as its target T1, human recombinant adrenergic α2A receptor (Homo sapiens, UniProt P08913).
T1 construct: expressed in transfected cells; host or cells: insect Sf9 cells
T1 sequence (P08913 1-465): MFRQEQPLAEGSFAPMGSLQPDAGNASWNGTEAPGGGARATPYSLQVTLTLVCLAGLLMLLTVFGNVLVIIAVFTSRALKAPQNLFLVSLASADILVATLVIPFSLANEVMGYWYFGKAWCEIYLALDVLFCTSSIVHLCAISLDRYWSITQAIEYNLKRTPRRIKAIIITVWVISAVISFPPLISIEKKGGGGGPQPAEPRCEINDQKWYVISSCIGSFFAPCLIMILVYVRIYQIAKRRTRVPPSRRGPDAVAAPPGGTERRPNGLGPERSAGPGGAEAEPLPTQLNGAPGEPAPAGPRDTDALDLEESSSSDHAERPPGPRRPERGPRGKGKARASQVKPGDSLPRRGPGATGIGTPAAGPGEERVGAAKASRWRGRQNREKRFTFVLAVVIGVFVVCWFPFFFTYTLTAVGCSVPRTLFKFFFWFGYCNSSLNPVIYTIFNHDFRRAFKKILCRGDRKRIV
Nature of the experiment: Radioligand binding, adrenergic α2A ([3H]MK-912). As to conditions: for Percentage inhibition of ligand binding, Adrenergic α2A (0.1 μM) / Percentage inhibition of ligand binding, Adrenergic α2A: 0.1 µM. Put shortly:
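Receptor expressed in Sf9 cells, in 50 mM Tris-HCl pH 7.4, 12.5 mM MgCl2, 2 mM EDTA; compounds incubated with 1 nM [3H]MK-912 for 60 min at 25 °C.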

For experiment [2], the target named is T2, human recombinant adrenergic α2B receptor (Homo sapiens, UniProt P18089).
T2 construct: expressed in transfected cells; host or cells: CHO-K1
T2 sequence (P18089 1-450): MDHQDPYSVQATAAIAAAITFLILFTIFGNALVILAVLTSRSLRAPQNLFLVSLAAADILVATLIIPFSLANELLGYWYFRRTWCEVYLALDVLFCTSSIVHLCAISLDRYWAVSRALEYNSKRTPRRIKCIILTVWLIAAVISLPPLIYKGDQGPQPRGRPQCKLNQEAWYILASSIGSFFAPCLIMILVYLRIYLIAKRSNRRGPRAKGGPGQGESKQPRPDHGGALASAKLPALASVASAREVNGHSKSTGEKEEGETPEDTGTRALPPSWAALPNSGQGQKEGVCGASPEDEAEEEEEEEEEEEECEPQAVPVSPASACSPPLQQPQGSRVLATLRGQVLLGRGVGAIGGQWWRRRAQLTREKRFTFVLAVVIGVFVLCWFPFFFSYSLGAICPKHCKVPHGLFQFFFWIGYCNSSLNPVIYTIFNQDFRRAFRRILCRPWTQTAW
The experiment is described as follows: Radioligand binding, adrenergic α2B ([3H]Rauwolscine). The note with it: for Percentage inhibition of ligand binding, Adrenergic α2B (0.03 μM) / Percentage inhibition of ligand binding, Adrenergic α2B: 0.03 µM. Put shortly: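 Membranes from CHO-K1 cells expressing human recombinant α2B, in 50 mM Tris-HCl pH 7.4, 12.5 mM MgCl2, 1 mM EDTA, 0.2% BSA, incubated with compound and 2.5 nM [3H]Rauwolscine, 60 min, 25 °C.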

Experiment [3] concerns the target T3, rat adrenergic α1B receptor (Rattus norvegicus, UniProt P15823).
T3 construct: rat adrenergic α1B receptor obtained from Wistar Rat liver; from tissue; host or cells: Wistar rat liver
T3 sequence (P15823 1-515): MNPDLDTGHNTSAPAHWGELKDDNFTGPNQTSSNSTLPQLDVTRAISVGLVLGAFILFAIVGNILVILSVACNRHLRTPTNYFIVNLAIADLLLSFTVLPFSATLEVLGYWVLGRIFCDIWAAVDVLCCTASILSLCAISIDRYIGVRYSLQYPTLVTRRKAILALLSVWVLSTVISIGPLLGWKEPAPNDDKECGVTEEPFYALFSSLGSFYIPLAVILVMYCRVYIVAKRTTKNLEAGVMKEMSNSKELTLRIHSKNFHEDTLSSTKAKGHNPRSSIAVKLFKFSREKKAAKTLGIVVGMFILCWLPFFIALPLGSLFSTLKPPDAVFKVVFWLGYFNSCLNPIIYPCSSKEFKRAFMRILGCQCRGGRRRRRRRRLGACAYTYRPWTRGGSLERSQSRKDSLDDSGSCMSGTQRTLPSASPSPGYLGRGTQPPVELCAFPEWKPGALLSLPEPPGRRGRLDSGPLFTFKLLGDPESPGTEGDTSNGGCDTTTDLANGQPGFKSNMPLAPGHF
The experiment is described as follows: Radioligand binding, adrenergic α1B ([3H]Prazosin). As to conditions: for Percentage inhibition of ligand binding, Adrenergic α1B (0.1 μM) / Percentage inhibition of ligand binding, Adrenergic α1B: 0.1 µM. Put shortly: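 Specific binding, taken as total minus that remaining with 10 μM phentolamine, is measured after filtration and counting. Rat liver receptor preparation and 0.25 nM [3H]prazosin are incubated with compound in 50 mM Tris-HCl (pH 7.4, 0.5 mM EDTA) at 25° C for 60 min. Activity is reported as percent inhibition.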

[4] abbreviates: read-out: Percentage inhibition of ligand binding, Adrenergic α2A (0.1 μM), compound at 0.1 μM, [3H]MK-912, repeat datapoints each shown.
The mark [5] stands for this setting: read-out: Percentage inhibition of ligand binding, Adrenergic α2B (0.03 μM), compound at 0.03 μM, [3H]Rauwolscine, repeat datapoints each shown.
Where [6] appears, read: read-out: Percentage inhibition of ligand binding, Adrenergic α1B (0.1 μM), compound at 0.1 μM, [3H]Prazosin, repeat datapoints each shown.
Setting [7] is: compound at 0.1 μM, [3H]MK-912, repeat datapoints each shown.
Where [8] appears, read: compound at 0.03 μM, [3H]Rauwolscine, repeat datapoints each shown.
[9] abbreviates: compound at 0.1 μM, [3H]Prazosin, repeat datapoints each shown.
Setting [10] is: compound at 0.1 μM, [3H]MK-912, repeat assays, each datapoint shown, read-out: Percentage inhibition of ligand binding, Adrenergic α2A.
Setting [11] is: compound at 0.03 μM, [3H]Rauwolscine, repeat assays, each datapoint shown, read-out: Percentage inhibition of ligand binding, Adrenergic α2B.
The mark [12] stands for this setting: compound at 0.1 μM, [3H]Prazosin, repeat assays, each datapoint shown, read-out: Percentage inhibition of ligand binding, Adrenergic α1B.
Where [13] appears, read: compound at 0.1 μM, [3H]Prazosin, repeat assays, each datapoint shown.
[14] abbreviates: compound at 0.03 μM, [3H]Rauwolscine, repeat assays, each datapoint shown.
[15] abbreviates: 0.1 μM compound, read-out: Percentage inhibition of ligand binding, Adrenergic α2A.
The mark [16] stands for this setting: 0.03 μM compound, read-out: Percentage inhibition of ligand binding, Adrenergic α2B.
The mark [17] stands for this setting: 0.1 μM compound, read-out: Percentage inhibition of ligand binding, Adrenergic α1B.

These results are taken from patent US8791132B2, “Compounds and methods for treatment of hypertension” (Medivation Technologies, Inc., priority 2011, dated 2014).

Several values for one entry are separate records, joined by “and”; a condition that tells them apart may be missing. Equal entries are not always repeated. Where two headings read alike, the source gives them in different places.

Broadly, the inhibition is the relative decrease from the control value, in per cent. Regarding `Cc1ccc2c(c1)c1c(n2CC(C(=O)O)c2ccncc2)CCN(C)C1` (stereo not shown) [II-262, 3-(2,8-dimethyl-3,4-dihydro-1H-pyrido[4,3-b]indol-5(2H)-yl)-2-(pyridin-4-yl)propanoic acid], the inhibition at 0.1 µM in experiment [1] (setting [4]) stood at 10%; in experiment [3] (setting [6]), 3%. The inhibition at 0.03 µM in experiment [2] (setting [5]) worked out at 11%.
The like results for `Cc1ccc2c(c1)c1c(n2CC(O)c2ccc(C(N)=O)nc2)CCN(C)C1` (stereo not shown) [144a, 5-[2-(2,8-dimethyl-1,2,3,4-tetrahydro-pyrido[4,3-b]indol-5-yl)-1-hydroxy-ethyl]-pyridine-2-carboxylic acid amide] were, in that order, 1%, 57% and 40%.
In general, Ki refers to a measure of affinity in units of concentration, obtained from inhibition or displacement. As for `Cc1ccc2c(c1)c1c(n2CC(O)c2ccc(C(N)=O)cc2)CCN(C)C1` (stereo not shown) [compound 139, 4-[2-(2,8-dimethyl-1,2,3,4-tetrahydro-pyrido[4,3-b]indol-5-yl)-1-hydroxy-ethyl]-benzamide], the figures for the Ki in experiment [1] and in experiment [2] (read-out: Ki α2B) were 390 nM and 8.12 nM, respectively. Also, the “Percentage inhibition of ligand binding, Adrenergic α2A (0.1 μM)” value in experiment [1] (setting [7]) was −2%. Besides, in experiment [2] (setting [8]), the “Percentage inhibition of ligand binding, Adrenergic α2B (0.03 μM)” value was 59% and 83%. For the same molecule, the inhibition at 0.1 µM in experiment [2] (read-out: Percentage inhibition of ligand binding, Adrenergic α2B (0.1 μM), compound at 0.1 μM, [3H]Rauwolscine, repeat datapoints each shown) came to 87%. Besides, the “Percentage inhibition of ligand binding, Adrenergic α1B (0.1 μM)” value in experiment [3] (setting [9]) is 72%. For the same molecule, the inhibition at 0.03 µM in experiment [3] (read-out: Percentage inhibition of ligand binding, Adrenergic α1B (0.03 μM), compound at 0.03 μM, [3H]Prazosin, repeat datapoints each shown) was determined as 46%.
Regarding `Cc1ccc2c(c1)c1c(n2CC(C(N)=O)c2ccncc2)CCN(C)C1` (stereo not shown) [II-263], the inhibition at 0.1 µM in experiment [1] (setting [4]) turned out to be 10%; in experiment [3] (setting [6]) it was 2%. Besides, in experiment [2] (setting [5]), the inhibition at 0.03 µM worked out at 10%.
Consider `Cc1cc2c3c(n(CC(C)(O)c4cccnc4)c2cc1CO)CCN(C)C3` (stereo not shown) [II-154], for which the inhibition at 0.1 µM is 11% in experiment [1] (setting [4]) and 2% in experiment [3] (setting [6]). Moreover, the inhibition at 0.03 µM in experiment [2] (setting [5]) amounted to 73%.
For the molecule `Cc1ccc2c(c1)c1c(n2CC(O)c2ccncc2)C(C)(C)CN(C)C1` (stereo not shown) [compound 71, 1-pyridin-4-yl-2-(2,4,4,8-tetramethyl-1,2,3,4-tetrahydro-pyrido[4,3-b]indol-5-yl)-ethanol], the inhibition at 0.1 µM in experiment [1] (setting [10]) and in experiment [3] (setting [12]) was 11% each time. Besides, the inhibition at 0.03 µM in experiment [2] (setting [11]) was found to be 9%.
`COc1ccc(C(O)Cn2c3c(c4cc(C)ccc42)CCN(C)C3)cc1` (single isomer, unassigned) [20a, 2-(2,6-dimethyl-1,2,3,4-tetrahydro-β-carbolin-9-yl)-1-(4-methoxy-phenyl)-ethanol]: the inhibition at 0.1 µM in experiment [1] (setting [10]) was 29%. Besides, in experiment [2] (setting [11]), the inhibition at 0.03 µM was determined as 28%. Also, the “Percentage inhibition of ligand binding, Adrenergic α1B” value in experiment [3] (setting [13]) was found to be 67%.
As for `COC(=O)CC(Cn1c2c(c3cc(C)ccc31)CN(C)CC2)c1ccncc1` (stereo not shown) [II-223, 4-(2,8-dimethyl-1,2,3,4-tetrahydro-pyrido[4,3-b]indol-5-yl)-3-pyridin-4-yl-butyric acid methyl ester], the results for the inhibition at 0.1 µM in experiment [1] (setting [4]) and in experiment [3] (setting [6]) were 8% and 9%, respectively. In experiment [2] (setting [5]), the inhibition at 0.03 µM turned out to be 88%.
Turning to `CN1CCc2c(c3cccc(Br)c3n2CC(O)c2ccncc2)C1` (single isomer, unassigned) [48a], the inhibition at 0.1 µM is 12% in experiment [1] (setting [10]) and 16% in experiment [3] (setting [12]). Further, in experiment [2] (setting [14]), the “Percentage inhibition of ligand binding, Adrenergic α2B” value was found to be 58%.
Regarding `Cc1ccc2c(c1)c1c(n2CC(N)c2ccc(F)cc2)CCN(C)C1` (single isomer, unassigned) [II-11a, 2-(2,8-dimethyl-3,4-dihydro-1H-pyrido[4,3-b]indol-5(2H)-yl)-1-(4-fluorophenyl)ethanamine], the “Percentage inhibition of ligand binding, Adrenergic α2A” value in experiment [1] (0.1 μM compound) is 22%. Moreover, in experiment [2] (0.03 μM compound), the “Percentage inhibition of ligand binding, Adrenergic α2B” value is listed as 53%. Besides, the “Percentage inhibition of ligand binding, Adrenergic α1B” value in experiment [3] (0.1 μM compound) stood at 9%.
Regarding `Cc1ccc2c(c1)c1c(n2CC(N=[N+]=[N-])c2ccncc2)CCN(C)C1` (racemic) [V-1b, 5-(2-azido-2-(pyridin-4-yl)ethyl)-2,3,4,5-tetrahydro-2,8-dimethyl-1H-pyrido[4,3-b]indole], in experiment [1] (setting [7]), the “Percentage inhibition of ligand binding, Adrenergic α2A (0.1 μM)” value was 29%. In experiment [2] (setting [8]), the “Percentage inhibition of ligand binding, Adrenergic α2B (0.03 μM)” value came out at 102%. In addition, the “Percentage inhibition of ligand binding, Adrenergic α1B (0.1 μM)” value in experiment [3] (setting [9]) is given as 57%.
Take `Cc1ccc2c(c1)c1c(n2CC(O)c2ccncc2)CC2CCCCN2C1` (racemic) [75c]: the “Percentage inhibition of ligand binding, Adrenergic α2A” value in experiment [1] (compound at 0.1 μM, [3H]MK-912, repeat assays, each datapoint shown) was −2%. Further, the “Percentage inhibition of ligand binding, Adrenergic α2B” value in experiment [2] (setting [14]) was determined as 11%. The “Percentage inhibition of ligand binding, Adrenergic α1B” value in experiment [3] (setting [13]) was 59%.
For the molecule `Cc1ccc2c(c1)c1c(n2CC(O)c2ccncc2)CCN(CC(=O)O)C1` (stereo not shown) [II-65, [5-(2-hydroxy-2-pyridin-4-yl-ethyl)-8-methyl-1,3,4,5-tetrahydro-pyrido[4,3-b]indol-2-yl]-acetic acid], the inhibition at 0.1 µM in experiment [1] (setting [15]) is 12%; in experiment [3] (setting [17]), 10%. Besides, the inhibition at 0.03 µM in experiment [2] (setting [16]) was 25%.
On to `Cc1ccc2c(c1)c1c(n2CC(CC(=O)O)c2ccncc2)CCN(C)C1` (stereo not shown) [II-228], for which the values for the inhibition at 0.1 µM in experiment [1] (setting [4]) and in experiment [3] (setting [6]) were 3% and -2%, respectively. For the same molecule, in experiment [2] (setting [5]), the inhibition at 0.03 µM came out at 10%.
Regarding `Cc1ccc2c(c1)c1c(n2CC(O)c2cc[n+]([O-])cc2)CCN(C)C1` (stereo not shown) [69a], the inhibition at 0.1 µM in experiment [1] (setting [10]) was 11%; in experiment [3] (setting [12]), 4%. In addition, the inhibition at 0.03 µM in experiment [2] (setting [11]) amounted to 10%.
On to `Cc1ccc2c(c1)c1c(n2CC(O)c2ccc(O)c(O)c2)CCN(C)C1` (stereo not shown) [II-88, 4-[2-(2,8-dimethyl-1,2,3,4-tetrahydro-pyrido[4,3-b]indol-5-yl)-1-hydroxy-ethyl]-benzene-1,2-diol], for which the inhibition at 0.1 µM in experiment [1] (setting [15]) was -2%; in experiment [3] (setting [17]) it was 68%. The inhibition at 0.03 µM in experiment [2] (setting [16]) worked out at 48%.
